Here are results for six molecules from patent US20240075050A1, “Methods and Compositions for Treating Leucine Rich Repeat Kinase 2 (LRRK2)-Associated Disorder or Condition” (University of Connecticut, priority 2022, published 2024).

In data set [1] the test system is LRRK2. Kind of data set: Endogenous LRRK2 levels in SH-SY5Y cells, Western blot. Format: cell-based, human.
The conditions of data set [2]: stated as reason for using the precursor AICAr; cited from earlier work.
Data set [3] has as its system [α-32P]cap-labeled LRRK2 RNA. Kind of data set: In vitro decapping assay. In kind it is biochemical, human. The following applies: recombinant Flag-tagged protein from HEK 293T cells, thin layer chromatography.

For `N#Cc1c(O)c2c(-c3ccc(-c4ccccc4O)cc3)csc2[nH]c1=O` [A769662], in data set [1] (SH-SY5Y, 10, 20, or 50 μM A769662, 48 hours), the LRRK2 levels entry is listed as “no obvious effects”.

With `Nc1ncnc2nc(-c3ccc(N4CCOCC4)nc3)cc(-c3cccc(Br)c3)c12` [ABT-702], in data set [1] (SH-SY5Y, 1 mM AICAr plus 1 μM ABT-702, 48 hours), the “effect of AICAr on LRRK2 levels in the presence of ABT-702” value is reported as “completely counteracted”.

As to `NC(=O)c1ncn([C@@H]2O[C@H](COP(=O)(O)O)[C@@H](O)[C@H]2O)c1N` [AICAR/ZMP, 5-aminoimidazole-4-carboxamide ribonucleotide], the membrane permeability result in data set [2] was “membrane impermeable”.

Consider `O=[N+]([O-])c1ccc(CSc2ncnc3c2ncn3[C@@H]2O[C@H](CO)[C@@H](O)[C@H]2O)cc1` [NBTI], for which the “effect of AICAr on LRRK2 levels in the presence of NBTI” value in data set [1] (SH-SY5Y, 1 mM AICAr plus 50 μM NBT-1, 48 hours) is recorded as “completely abolished”.

As for “DCP2: recombinant Flag-tagged decapping enzyme purified from HEK 293T cells”, the “LRRK2 mRNA decapping activity (m7GDP level)” value in data set [3] is reported as “decapped LRRK2 mRNA”.

B1: DCP1A: recombinant Flag-tagged decapping enzyme purified from HEK 293T cells (protein, UniProt Q9NPI6 1-582, looked up)
mRNA-decapping enzyme 1A: MEALSRAGQEMSLAALKQHDPYITSIADLTGQVALYTFCPKANQWEKTDIEGTLFVYRRSASPYHGFTIVNRLNMHNLVEPVNKDLEFQLHEPFLLYRNASLSIYSIWFYDKNDCHRIAKLMADVVEEETRRSQQAARDKQSPSQANGCSDHRPIDILEMLSRAKDEYERNQMGDSNISSPGLQPSTQLSNLGSTETLEEMPSGSQDKSAPSGHKHLTVEELFGTSLPKEQPAVVGLDSEEMERLPGDASQKEPNSFLPFPFEQLGGAPQSETLGVPSAAHHSVQPEITTPVLITPASITQSNEKHAPTYTIPLSPVLSPTLPAEAPTAQVPPSLPRNSTMMQAVKTTPRQRSPLLNQPVPELSHASLIANQSPFRAPLNVTNTAGTSLPSVDLLQKLRLTPQHDQIQTQPLGKGAMVASFSPAAGQLATPESFIEPPSKTAAARVAASASLSNMVLAPLQSMQQNQDPEVFVQPKVLSSAIPVAGAPLVTATTTAVSSVLLAPSVFQQTVTRSSDLERKASSPSPLTIGTPESQRKPSIILSKSQLQDTLIHLIKNDSSFLSTLHEVYLQVLTKNKDNHNL
modifications: Flag tag
notes: recombinant Flag-tagged decapping enzyme purified from HEK 293T cells
As to B1, the “LRRK2 mRNA decapping activity (m7GDP level)” value in data set [3] is recorded as “decapped LRRK2 mRNA”.
